# In ChEMBL document CHEMBL5380830, “Development and Therapeutic Implications of Tyrosine Kinase 2 Inhibitors” (J Med Chem, 2023):
# Columns and labels:
# [1] = molecular target: T1, Non-receptor tyrosine-protein kinase TYK2 (Homo sapiens, UniProt P29597); assay: Inhibition of TYK2 in HEK-Blue IL-23 cells assessed as reduction in SEAP reporter gene expression by Quanti-blue assay; format: cell-based
# [2] = molecular target: T1, Non-receptor tyrosine-protein kinase TYK2; assay: Binding affinity to TYK2 JH2 (unknown origin)
# [3] = molecular target: T1, Non-receptor tyrosine-protein kinase TYK2; assay: Inhibition of TYK2 signal transduction pathway in human PBMC cells assessed as IFNalpha induced p-STAT5 level; format: cell-based
# [4] = molecular target: T1, Non-receptor tyrosine-protein kinase TYK2; assay: Inhibition of TYK2 signal transduction pathway in human PBMC cells assessed as reduction in GM-CSF induced p-STAT5 level; format: cell-based
# [5] = molecular target: T2, Tyrosine-protein kinase JAK2 (Homo sapiens, UniProt O60674); assay: Binding affinity to JAK2 JH1 (unknown origin)
# T2 sequence (O60674 whole entry): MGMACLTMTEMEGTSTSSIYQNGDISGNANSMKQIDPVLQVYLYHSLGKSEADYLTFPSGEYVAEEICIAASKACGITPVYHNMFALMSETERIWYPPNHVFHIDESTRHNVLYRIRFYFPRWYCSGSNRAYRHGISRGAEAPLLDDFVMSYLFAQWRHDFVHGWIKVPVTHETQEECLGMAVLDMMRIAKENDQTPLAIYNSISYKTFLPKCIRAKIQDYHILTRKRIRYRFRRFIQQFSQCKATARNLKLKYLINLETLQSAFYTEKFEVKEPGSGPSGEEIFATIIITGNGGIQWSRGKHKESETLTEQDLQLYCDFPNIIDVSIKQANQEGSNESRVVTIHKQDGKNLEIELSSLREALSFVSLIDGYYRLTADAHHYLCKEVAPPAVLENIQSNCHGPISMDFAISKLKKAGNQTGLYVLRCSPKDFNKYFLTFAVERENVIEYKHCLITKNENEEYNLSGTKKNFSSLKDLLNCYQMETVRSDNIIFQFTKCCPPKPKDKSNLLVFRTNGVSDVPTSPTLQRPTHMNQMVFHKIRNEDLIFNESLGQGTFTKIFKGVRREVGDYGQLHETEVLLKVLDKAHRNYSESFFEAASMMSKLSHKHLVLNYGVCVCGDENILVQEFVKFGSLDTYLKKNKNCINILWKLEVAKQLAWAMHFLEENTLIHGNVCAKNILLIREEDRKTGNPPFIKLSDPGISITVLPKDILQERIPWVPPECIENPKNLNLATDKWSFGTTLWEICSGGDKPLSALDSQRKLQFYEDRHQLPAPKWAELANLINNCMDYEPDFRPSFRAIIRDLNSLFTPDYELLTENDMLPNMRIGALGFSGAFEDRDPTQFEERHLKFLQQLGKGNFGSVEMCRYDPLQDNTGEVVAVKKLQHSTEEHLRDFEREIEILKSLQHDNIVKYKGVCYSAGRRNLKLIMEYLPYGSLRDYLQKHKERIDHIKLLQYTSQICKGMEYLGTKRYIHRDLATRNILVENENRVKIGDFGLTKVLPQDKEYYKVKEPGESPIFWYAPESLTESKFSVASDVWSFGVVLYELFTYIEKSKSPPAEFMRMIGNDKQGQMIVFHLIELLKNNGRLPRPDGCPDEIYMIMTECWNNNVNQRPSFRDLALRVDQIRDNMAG
# [6] = molecular target: T1, Non-receptor tyrosine-protein kinase TYK2; assay: Inhibition of TYK2 signal transduction pathway in human PBMC cells assessed as IL-2 induced p-STAT5 level; format: cell-based
# [7] = molecular target: T3, Tyrosine-protein kinase JAK1 (Homo sapiens, UniProt P23458); assay: Binding affinity to JAK1 JH2 (unknown origin)
# T3 sequence (P23458 whole entry, the tested form may be a part): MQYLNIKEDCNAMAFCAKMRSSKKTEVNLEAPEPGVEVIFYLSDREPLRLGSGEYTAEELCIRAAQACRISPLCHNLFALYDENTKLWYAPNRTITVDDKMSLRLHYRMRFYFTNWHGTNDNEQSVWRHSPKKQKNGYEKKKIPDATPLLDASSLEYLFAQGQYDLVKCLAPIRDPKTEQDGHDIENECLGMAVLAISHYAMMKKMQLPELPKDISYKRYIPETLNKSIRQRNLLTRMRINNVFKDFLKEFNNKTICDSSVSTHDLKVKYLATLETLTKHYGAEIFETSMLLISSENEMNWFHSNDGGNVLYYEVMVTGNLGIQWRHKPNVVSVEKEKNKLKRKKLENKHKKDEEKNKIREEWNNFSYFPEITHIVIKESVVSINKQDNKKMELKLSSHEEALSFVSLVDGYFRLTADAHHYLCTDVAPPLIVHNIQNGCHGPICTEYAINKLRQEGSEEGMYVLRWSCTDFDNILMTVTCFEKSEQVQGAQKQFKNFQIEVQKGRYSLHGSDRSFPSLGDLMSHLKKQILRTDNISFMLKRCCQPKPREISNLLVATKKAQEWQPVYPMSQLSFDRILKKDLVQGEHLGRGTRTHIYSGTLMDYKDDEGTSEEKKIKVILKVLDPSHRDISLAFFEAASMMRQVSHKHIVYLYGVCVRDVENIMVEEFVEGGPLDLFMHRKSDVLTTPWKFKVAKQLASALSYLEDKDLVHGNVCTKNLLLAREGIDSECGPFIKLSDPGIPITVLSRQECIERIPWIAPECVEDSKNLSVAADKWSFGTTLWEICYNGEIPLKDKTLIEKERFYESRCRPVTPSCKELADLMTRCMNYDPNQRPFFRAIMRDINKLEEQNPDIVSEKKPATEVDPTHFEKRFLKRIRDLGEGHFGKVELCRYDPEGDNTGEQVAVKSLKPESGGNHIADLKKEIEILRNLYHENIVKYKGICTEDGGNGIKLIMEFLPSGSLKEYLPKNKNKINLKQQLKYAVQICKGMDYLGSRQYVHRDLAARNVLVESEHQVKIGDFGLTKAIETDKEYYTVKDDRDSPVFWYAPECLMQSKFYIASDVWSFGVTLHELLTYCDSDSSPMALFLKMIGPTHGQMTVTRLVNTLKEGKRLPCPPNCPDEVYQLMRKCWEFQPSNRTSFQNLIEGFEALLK
# [8] = molecular target: T1, Non-receptor tyrosine-protein kinase TYK2; assay: Binding affinity to human wild-type partial length TYK2 JH2 (G556 to D888 residues) expressed in mammalian expression system by KINOMEscan assay
# [9] = Inhibition of IL-23 induced STAT phosphorylation in HEK293 cells by Western blotting analysis; format: cell-based; settings: Homo sapiens
# [10] = Inhibition of IFNalpha induced STAT phosphorylation in HEK293 cells by Western blotting analysis; format: cell-based; settings: Homo sapiens
# [11] = molecular target: T1, Non-receptor tyrosine-protein kinase TYK2; assay: Inhibition of TYK2 JH2 in human TF-1 cells assessed as reduction of IFNalpha induced STAT1 phosphorylation; format: cell-based
# [12] = molecular target: T1, Non-receptor tyrosine-protein kinase TYK2; assay: Inhibition of TYK2 JH2 (unknown origin) by scintillation proximity assay
# [13] = molecular target: T1, Non-receptor tyrosine-protein kinase TYK2; assay: Inhibition of TYK2 JH2 in human KIT225 cells assessed as reduction of IFNalpha induced STAT1 phosphorylation by AlphaLISA assay; format: cell-based
# [14] = molecular target: T3, Tyrosine-protein kinase JAK1; assay: Inhibition of human recombinant JAK1 preincubated for 15 mins followed by substrate addition measured after 60 mins by HTRF assay
# [15] = molecular target: T1, Non-receptor tyrosine-protein kinase TYK2; assay: Inhibition of human recombinant TYK2 preincubated for 15 mins followed by substrate addition measured after 60 mins by HTRF assay
# [16] = molecular target: T2, Tyrosine-protein kinase JAK2; assay: Inhibition of human recombinant JAK2 preincubated for 15 mins followed by substrate addition measured after 60 mins by HTRF assay
# [17] = molecular target: T4, JAK2/TYK2 (Homo sapiens, UniProt O60674+P29597); assay: Inhibition of JAK2/TYK2 signal transduction pathway in human NK92 cells assessed as […] induced IFNgamma expression incubated for 24 hrs by ELISA assay; format: cell-based
# T4 sequence (O60674 whole entry): as the sequence (O60674 whole entry) above
# T4 sequence (P29597 whole entry): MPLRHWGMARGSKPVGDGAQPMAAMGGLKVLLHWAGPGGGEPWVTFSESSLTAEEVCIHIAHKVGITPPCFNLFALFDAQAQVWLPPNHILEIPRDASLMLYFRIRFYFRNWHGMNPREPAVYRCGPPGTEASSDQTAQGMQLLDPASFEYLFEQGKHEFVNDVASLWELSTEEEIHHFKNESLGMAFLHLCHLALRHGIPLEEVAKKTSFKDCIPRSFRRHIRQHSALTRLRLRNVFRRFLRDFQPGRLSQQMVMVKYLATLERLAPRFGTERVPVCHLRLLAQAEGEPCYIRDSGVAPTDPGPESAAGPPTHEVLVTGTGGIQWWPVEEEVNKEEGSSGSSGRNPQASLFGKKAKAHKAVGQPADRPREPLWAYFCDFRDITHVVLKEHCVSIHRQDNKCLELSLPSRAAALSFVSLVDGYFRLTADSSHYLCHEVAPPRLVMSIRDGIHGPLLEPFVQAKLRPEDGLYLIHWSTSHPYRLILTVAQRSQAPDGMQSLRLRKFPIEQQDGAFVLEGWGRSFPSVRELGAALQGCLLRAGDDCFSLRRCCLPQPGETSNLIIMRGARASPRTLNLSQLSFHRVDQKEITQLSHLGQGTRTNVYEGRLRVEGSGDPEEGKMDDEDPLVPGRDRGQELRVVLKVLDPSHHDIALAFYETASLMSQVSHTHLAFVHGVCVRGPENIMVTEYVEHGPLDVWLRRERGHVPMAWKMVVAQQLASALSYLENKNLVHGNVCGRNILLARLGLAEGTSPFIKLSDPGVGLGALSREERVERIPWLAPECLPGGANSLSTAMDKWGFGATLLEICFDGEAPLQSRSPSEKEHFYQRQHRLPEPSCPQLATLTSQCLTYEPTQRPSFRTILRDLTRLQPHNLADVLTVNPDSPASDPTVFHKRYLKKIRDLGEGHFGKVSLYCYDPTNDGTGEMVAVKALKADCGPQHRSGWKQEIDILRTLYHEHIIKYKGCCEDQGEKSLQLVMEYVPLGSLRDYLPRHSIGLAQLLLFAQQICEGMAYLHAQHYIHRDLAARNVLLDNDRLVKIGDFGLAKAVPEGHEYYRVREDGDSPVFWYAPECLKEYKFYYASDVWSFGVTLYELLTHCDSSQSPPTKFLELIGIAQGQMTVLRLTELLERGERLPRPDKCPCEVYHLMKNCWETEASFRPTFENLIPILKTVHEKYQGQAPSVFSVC
# [18] = molecular target: T5, Tyrosine-protein kinase JAK3 (Homo sapiens, UniProt P52333); assay: Inhibition of human recombinant JAK3 preincubated for 15 mins followed by substrate addition measured after 60 mins by HTRF assay
# T5 sequence (P52333 whole entry): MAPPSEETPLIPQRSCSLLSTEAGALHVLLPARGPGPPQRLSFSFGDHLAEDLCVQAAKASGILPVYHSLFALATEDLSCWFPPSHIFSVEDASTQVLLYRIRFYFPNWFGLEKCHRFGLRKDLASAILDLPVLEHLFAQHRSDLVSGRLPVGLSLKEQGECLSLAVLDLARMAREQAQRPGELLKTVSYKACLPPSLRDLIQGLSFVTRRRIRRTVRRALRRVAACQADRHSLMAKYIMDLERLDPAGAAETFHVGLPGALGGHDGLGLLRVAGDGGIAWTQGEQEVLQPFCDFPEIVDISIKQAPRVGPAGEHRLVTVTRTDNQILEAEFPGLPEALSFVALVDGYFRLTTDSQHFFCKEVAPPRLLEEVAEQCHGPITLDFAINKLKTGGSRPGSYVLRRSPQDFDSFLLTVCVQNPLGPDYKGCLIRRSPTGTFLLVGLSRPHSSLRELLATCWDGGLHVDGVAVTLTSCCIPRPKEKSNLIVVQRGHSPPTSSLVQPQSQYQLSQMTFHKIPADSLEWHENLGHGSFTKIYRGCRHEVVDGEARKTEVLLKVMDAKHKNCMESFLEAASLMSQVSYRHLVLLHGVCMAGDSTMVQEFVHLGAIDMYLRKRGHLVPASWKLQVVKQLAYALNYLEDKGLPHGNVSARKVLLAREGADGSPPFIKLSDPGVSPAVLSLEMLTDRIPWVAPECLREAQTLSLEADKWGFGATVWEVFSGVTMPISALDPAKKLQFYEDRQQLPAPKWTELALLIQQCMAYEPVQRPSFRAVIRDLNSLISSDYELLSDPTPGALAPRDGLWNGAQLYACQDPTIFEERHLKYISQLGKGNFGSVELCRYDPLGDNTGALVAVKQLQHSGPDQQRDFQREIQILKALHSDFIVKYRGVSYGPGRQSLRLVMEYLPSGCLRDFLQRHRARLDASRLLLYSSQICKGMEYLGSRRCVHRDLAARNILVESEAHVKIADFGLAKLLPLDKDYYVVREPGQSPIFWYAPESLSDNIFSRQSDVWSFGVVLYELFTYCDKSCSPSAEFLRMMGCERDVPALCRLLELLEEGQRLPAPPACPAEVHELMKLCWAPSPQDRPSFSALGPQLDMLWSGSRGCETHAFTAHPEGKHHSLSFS
# [19] = Inhibition of IFNalpha induced STAT phosphorylation in human whole blood by fluorescence based analysis; format: tissue-based
# [20] = Half life in mouse at 10 mg/kg, po measured upto 24 hrs by LC-MS/MS analysis; format: ADME, organism-based; settings: in vivo
# [21] = molecular target: T1, Non-receptor tyrosine-protein kinase TYK2; assay: Inhibition of TYK2 signal transduction pathway in human TF-1 cells assessed as reduction in GM-CSF induced p-STAT5 level; format: cell-based
# [22] = molecular target: T4, JAK2/TYK2; assay: Inhibition of JAK2/TYK2 signal transduction pathway in human NK92 cells assessed as IL-12 induced STAT4 phosphorylation; format: cell-based
# [23] = AUClast in mouse at 10 mg/kg, po measured upto 24 hrs by LC-MS/MS analysis; format: ADME, organism-based; parameters: dose 10 mg/kg, time < 24 hrs, route po; settings: in vivo
# [24] = Cmax in mouse at 10 mg/kg, po measured upto 24 hrs by LC-MS/MS analysis; format: ADME, organism-based; parameters: time < 24 hrs, dose 10 mg/kg, route po; settings: in vivo
# T1 sequence (P29597 whole entry): as the sequence (P29597 whole entry) above
smiles,measurement,setting,value
[2H]C([2H])([2H])NC(=O)c1nnc(NC(=O)C2CC2)cc1Nc1ncc(C2CC2)cc1S(C)(=O)=O,IC50,[1],< 1 nM
[2H]C([2H])([2H])CC(=O)c1cnc(Nc2cccc(C#N)n2)cc1Nc1nccc(-c2ncn(C([2H])([2H])[2H])n2)c1OC,Kd,[2],≤ 10 nM
same,IC50,[3],< 100 nM
same,IC50,[4],≤ 1000 nM
same,Kd,[5],> 10000 nM
same,IC50,[6],≤ 100 nM
same,Kd,[7],≤ 100 nM
[2H]C([2H])([2H])NC(=O)c1nnc(NC(=O)C2CC2)cc1Nc1cccc(-c2noc(CN3CCN(S(C)(=N)=O)CC3)n2)c1OC (stereo unspecified),Kd,[8],0.008 nM
[2H]C([2H])([2H])NC(=O)c1nnc(NC(=O)C2CC2)cc1Nc1cccc2c1N(C)Cc1cccnc1-2,IC50,[9],< 30 nM
same,IC50,[10],< 30 nM
CCOc1cccc(Nc2cc(NC)n3ncc(C(=O)N[C@@H]4CCN(C)C4=O)c3n2)n1,IC50,[11],38 nM
same,IC50,[12],< 254 nM
[2H]C([2H])([2H])NC(=O)c1nnc(Nc2ccc(N3CC(O)C3)cn2)cc1Nc1cccc(-c2ncn(C)n2)c1OC,Kd,[8],0.005 nM
same,IC50,[13],83 nM
[2H]C([2H])([2H])CC(=O)c1cnc(NC(=O)C2CC2)cc1Nc1nccc(-c2ncn(C([2H])([2H])[2H])n2)c1OC,Kd,[2],≤ 10 nM
same,IC50,[3],< 100 nM
same,IC50,[4],> 10000 nM
same,Kd,[5],≤ 1000 nM
same,IC50,[6],≤ 1000 nM
same,Kd,[7],≤ 100 nM
COC(=O)c1nnc(NC(=O)C2CC2)cc1Nc1cccc2c1N(C)Cc1cn(C)nc1-2,IC50,[9],< 30 nM
same,IC50,[10],< 30 nM
[2H]C([2H])([2H])CC(=O)c1cnc(Nc2cccc(C#N)n2)cc1Nc1cccc(-c2ncn(C([2H])([2H])[2H])n2)c1OC,Kd,[2],≤ 10 nM
same,IC50,[3],< 100 nM
same,IC50,[4],≤ 1000 nM
same,Kd,[5],> 10000 nM
same,IC50,[6],≤ 100 nM
same,Kd,[7],≤ 100 nM
NC(=O)c1nnc(-c2c(F)cccc2Cl)cc1Nc1ccc(N2CCOCC2)cc1,IC50,[14],37 nM
same,IC50,[15],0.2 nM
same,IC50,[16],9 nM
same,IC50,[17],0.4 nM
same,IC50,[18],11 nM
[2H]C([2H])([2H])NC(=O)c1nnc(NC(=O)C2CC2)cc1Nc1cccc2c1N(C)Cc1cn(C)nc1-2,IC50,[9],< 30 nM
same,IC50,[10],< 30 nM
O=C(Nc1cc2c(cn1)c(=O)[nH]n2-c1ccccc1)C1CC1,IC50,[9],< 10000 nM
same,IC50,[10],< 10000 nM
CNc1cc(Nc2ccccc2OC)nc2c(C(=O)N[C@@H]3CCN(C)C3=O)cnn12,IC50,[11],8 nM
[2H]C([2H])([2H])NC(=O)c1nnc(NC(=O)C2CC2)cc1Nc1cccc(-c2ncc(C(=O)N3CCN(C4CCCC4)CC3)s2)c1OC,IC50,[19],40 nM
CNc1cc2nn3c(cnc13)C(=O)N[C@H](C)COCc1ccc(OC)c(c1)N2,Kd,[2],0.002 nM
same,IC50,[3],1.2 nM
same,Kd,[5],7300 nM
same,IC50,[6],> 10000 nM
same,Kd,[7],430 nM
COc1cc(Nc2cc(NC(C)=O)ncc2-c2ccc(F)cn2)nc(S(C)(=O)=O)c1,half-life,[20],1.48 h
same,IC50,[21],> 10000 nM
same,IC50,[22],1.82 nM
same,AUC(0-t) at 24 h,[23],2100 ng·h/mL
same,Cmax,[24],911 ng/mL
[2H]C([2H])([2H])NC(=O)c1nnc(NC(=O)C2CC2)cc1Nc1cccc(-c2noc(CN3CCN(S(C)(=O)=O)CC3)n2)c1OC,IC50,[19],30 nM
[2H]C([2H])([2H])NC(=O)c1nnc(NC(=O)C2CC2)cc1Nc1cccc(-n2cc3c(n2)CN(S(C)(=N)=O)C3)c1OC (stereo unspecified),Kd,[8],0.009 nM
